Positions of bridges follow the written chain, without caps; N, C: chain ends. Non-standard residues stand in square brackets, D forms with d. Residues, ends and D or L forms follow the SMILES beside them. Phe(4-Cl) = N[C@@H](Cc1ccc(Cl)cc1)C(=O)O; 2Nal = N[C@@H](Cc1ccc2ccccc2c1)C(=O)O
Tests used:
Format in all cases: cell-based
[1] = target: Sodium channel protein type 1 subunit alpha (Homo sapiens) (UniProt P35498); assay: Activation of human Nav1.1 expressed in HEK293 cells assessed as ratio of compound activation AUC to baseline activation AUC at 0.37 uM at -120 mV holding potential by Qpatch assay
[2] = target: Sodium channel protein type 1 subunit alpha (Homo sapiens) (UniProt P35498); assay: Activation of human Nav1.1 expressed in HEK293 cells assessed as ratio of compound activation AUC to baseline activation AUC at 1.11 uM at -120 mV holding potential by Qpatch assay
[3] = target: Sodium channel protein type 1 subunit alpha (Homo sapiens) (UniProt P35498); assay: Activation of human Nav1.1 expressed in HEK293 cells assessed as ratio of compound activation AUC to baseline activation AUC at 0.12 uM at -120 mV holding potential by Qpatch assay
[4] = target: Sodium channel protein type 1 subunit alpha (Homo sapiens) (UniProt P35498); assay: Activation of human Nav1.1 expressed in HEK293 cells assessed as ratio of compound activation AUC to baseline activation AUC at 3.3 uM at -120 mV holding potential by Qpatch assay
[5] = target: Sodium channel protein type 3 subunit alpha (Homo sapiens) (UniProt Q9NY46); assay: Activation of human Nav1.3 expressed in CHOK1 cells assessed as ratio of compound activation AUC to baseline activation AUC at 3.3 uM at -120 mV holding potential by Qpatch assay
[6] = target: Sodium channel protein type 4 subunit alpha (Homo sapiens) (UniProt P35499); assay: Activation of human Nav1.4 expressed in HEK293 cells assessed as ratio of compound activation AUC to baseline activation AUC at 3.3 uM at -120 mV holding potential by Qpatch assay
[7] = target: Sodium channel protein type 5 subunit alpha (Homo sapiens, UniProt Q14524); assay: Activation of human Nav1.5 expressed in HEK293 cells assessed as ratio of compound activation AUC to baseline activation AUC at 3.3 uM at -120 mV holding potential by Qpatch assay; conditions: hek293, 3.3 µM
[8] = target: Sodium channel protein type 9 subunit alpha (Homo sapiens) (UniProt Q15858); assay: Activation of human Nav1.7 expressed in HEK293 cells assessed as ratio of compound activation AUC to baseline activation AUC at 3.3 uM at -120 mV holding potential by Qpatch assay
[9] = target: Sodium channel protein type 2 subunit alpha (Homo sapiens) (UniProt Q99250); assay: Activation of human Nav1.2 expressed in CHOK1 cells assessed as ratio of compound activation AUC to baseline activation AUC at 3.3 uM at -120 mV holding potential by Qpatch assay
[10] = target: Sodium channel protein type 8 subunit alpha (Homo sapiens) (UniProt Q9UQD0); assay: Activation of human Nav1.6 expressed in HEK293 cells assessed as ratio of compound activation AUC to baseline activation AUC at 3.3 uM at -120 mV holding potential by Qpatch assay
Chain of Sodium channel protein type 8 subunit alpha (Homo sapiens) (Q9UQD0 whole entry, looked up): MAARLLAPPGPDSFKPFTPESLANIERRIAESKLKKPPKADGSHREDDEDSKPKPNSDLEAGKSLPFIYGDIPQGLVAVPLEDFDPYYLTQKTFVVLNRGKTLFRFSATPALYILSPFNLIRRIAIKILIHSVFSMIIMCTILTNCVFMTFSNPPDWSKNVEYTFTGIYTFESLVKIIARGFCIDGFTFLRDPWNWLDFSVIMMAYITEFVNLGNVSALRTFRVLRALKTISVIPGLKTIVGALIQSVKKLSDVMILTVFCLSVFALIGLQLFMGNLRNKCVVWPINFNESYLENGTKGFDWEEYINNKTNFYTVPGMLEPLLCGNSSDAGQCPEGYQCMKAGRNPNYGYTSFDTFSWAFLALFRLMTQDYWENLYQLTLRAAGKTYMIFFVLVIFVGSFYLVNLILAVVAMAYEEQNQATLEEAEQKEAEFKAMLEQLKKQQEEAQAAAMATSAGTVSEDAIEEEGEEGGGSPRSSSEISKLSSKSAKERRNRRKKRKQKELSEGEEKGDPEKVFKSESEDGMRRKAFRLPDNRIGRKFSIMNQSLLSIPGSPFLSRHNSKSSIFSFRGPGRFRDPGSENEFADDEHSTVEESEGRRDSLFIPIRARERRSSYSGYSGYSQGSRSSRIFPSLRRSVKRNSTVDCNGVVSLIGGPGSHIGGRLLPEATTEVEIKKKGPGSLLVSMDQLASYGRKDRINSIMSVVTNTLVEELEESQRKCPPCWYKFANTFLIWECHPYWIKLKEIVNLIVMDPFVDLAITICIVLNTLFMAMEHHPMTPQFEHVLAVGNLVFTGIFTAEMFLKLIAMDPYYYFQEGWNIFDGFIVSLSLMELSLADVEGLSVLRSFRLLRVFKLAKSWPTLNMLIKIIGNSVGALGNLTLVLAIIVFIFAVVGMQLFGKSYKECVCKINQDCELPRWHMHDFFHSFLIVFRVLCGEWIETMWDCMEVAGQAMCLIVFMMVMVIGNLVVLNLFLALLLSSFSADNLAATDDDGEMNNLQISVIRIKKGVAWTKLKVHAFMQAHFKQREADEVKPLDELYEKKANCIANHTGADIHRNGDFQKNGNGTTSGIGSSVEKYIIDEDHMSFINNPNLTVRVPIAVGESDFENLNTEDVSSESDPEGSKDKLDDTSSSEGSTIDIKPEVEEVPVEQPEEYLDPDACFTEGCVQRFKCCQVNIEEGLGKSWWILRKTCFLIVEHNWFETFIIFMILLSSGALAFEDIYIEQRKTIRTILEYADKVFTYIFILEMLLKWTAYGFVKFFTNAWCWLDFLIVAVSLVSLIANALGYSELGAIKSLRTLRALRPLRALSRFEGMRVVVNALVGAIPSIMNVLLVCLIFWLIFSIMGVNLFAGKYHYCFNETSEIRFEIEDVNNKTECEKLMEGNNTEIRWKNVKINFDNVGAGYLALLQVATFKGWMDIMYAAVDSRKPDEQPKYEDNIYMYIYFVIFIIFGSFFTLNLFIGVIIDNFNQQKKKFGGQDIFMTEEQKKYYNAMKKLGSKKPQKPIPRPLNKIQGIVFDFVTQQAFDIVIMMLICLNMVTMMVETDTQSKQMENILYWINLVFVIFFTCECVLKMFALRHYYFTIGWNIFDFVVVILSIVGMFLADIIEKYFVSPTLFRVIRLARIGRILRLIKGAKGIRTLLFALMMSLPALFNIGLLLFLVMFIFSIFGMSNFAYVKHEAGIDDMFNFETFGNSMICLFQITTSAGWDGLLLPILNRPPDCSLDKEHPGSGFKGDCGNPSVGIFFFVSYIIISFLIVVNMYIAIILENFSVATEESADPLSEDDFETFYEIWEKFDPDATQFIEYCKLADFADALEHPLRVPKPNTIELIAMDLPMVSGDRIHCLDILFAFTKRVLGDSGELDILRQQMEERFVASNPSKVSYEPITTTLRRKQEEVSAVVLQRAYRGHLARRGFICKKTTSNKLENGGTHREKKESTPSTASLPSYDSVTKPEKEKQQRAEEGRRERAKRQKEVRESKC

Chain of Sodium channel protein type 5 subunit alpha (Q14524 whole entry): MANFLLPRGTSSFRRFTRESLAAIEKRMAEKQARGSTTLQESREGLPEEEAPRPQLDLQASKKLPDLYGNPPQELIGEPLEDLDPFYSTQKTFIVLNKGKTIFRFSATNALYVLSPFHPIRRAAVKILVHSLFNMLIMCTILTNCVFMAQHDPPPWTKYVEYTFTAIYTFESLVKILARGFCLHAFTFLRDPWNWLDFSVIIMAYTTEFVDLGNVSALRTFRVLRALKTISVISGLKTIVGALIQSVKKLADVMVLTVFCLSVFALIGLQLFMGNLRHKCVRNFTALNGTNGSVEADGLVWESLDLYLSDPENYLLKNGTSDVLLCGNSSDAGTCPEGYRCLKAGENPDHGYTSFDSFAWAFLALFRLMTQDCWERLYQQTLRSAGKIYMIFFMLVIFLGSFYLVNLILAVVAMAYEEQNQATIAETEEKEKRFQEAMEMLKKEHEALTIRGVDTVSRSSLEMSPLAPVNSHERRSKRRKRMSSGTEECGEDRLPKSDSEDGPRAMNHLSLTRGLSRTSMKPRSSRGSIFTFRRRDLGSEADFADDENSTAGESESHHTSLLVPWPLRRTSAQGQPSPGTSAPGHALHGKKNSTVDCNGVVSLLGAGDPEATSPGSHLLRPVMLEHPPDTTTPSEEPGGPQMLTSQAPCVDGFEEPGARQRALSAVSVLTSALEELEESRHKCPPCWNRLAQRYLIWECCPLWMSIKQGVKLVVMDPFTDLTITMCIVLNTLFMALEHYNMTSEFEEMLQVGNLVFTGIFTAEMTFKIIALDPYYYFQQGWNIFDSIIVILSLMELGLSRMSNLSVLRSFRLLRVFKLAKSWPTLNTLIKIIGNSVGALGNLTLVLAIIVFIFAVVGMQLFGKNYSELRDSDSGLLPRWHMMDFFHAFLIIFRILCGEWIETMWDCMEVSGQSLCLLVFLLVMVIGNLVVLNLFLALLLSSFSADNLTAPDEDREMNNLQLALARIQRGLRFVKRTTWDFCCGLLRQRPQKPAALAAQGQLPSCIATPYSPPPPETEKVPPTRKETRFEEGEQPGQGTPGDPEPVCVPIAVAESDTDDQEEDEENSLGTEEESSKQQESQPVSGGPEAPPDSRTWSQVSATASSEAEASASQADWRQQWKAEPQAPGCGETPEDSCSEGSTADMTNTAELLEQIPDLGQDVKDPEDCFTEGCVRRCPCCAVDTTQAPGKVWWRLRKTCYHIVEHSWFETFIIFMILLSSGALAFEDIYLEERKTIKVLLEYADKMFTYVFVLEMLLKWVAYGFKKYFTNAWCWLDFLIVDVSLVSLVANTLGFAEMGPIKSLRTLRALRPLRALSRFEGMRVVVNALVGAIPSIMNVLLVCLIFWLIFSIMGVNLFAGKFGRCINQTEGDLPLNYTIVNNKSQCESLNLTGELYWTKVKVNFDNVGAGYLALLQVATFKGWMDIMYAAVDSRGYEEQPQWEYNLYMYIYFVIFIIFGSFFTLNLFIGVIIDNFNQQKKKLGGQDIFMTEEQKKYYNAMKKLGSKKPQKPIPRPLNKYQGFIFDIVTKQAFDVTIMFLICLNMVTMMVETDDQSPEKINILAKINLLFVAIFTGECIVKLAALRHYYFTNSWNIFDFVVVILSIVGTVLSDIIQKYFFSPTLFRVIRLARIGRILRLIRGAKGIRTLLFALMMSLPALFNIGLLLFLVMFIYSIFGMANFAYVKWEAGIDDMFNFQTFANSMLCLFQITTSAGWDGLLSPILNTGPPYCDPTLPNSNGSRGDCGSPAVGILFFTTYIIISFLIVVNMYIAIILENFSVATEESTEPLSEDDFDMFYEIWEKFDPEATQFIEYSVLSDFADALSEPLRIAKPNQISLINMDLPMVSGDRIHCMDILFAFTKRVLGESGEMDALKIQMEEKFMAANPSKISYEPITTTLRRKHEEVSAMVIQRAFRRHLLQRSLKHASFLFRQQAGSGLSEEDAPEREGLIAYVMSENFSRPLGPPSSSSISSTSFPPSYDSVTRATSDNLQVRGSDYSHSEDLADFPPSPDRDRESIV

Structure (SMILES): CC[C@H](C)[C@H](NC(=O)[C@@H](N)CCCNC(=N)N)C(=O)N[C@@H](CCCCN)C(=O)N[C@H](C(=O)N1CCC[C@@H]1C(=O)N[C@@H](CC(C)C)C(=O)N[C@@H](Cc1ccccc1)C(=O)N[C@@H](CC(=O)O)C(=O)N[C@@H](CCC(N)=O)C(=O)N[C@@H](CC(C)C)C(=O)N[C@@H](CO)C(=O)N[C@@H](CCCNC(=N)N)C(=O)N[C@@H](CC(C)C)C(N)=O)[C@@H](C)CC
- Ratio AUC [1]: 1.1
- Ratio AUC [2]: 1.1
- Ratio AUC [3]: 1
- Ratio AUC [4]: 1.1

Structure (SMILES): CC[C@H](C)[C@H](NC(=O)[C@H](CCCCN)NC(=O)[C@@H](NC(=O)[C@@H](N)CCCNC(=N)N)[C@@H](C)CC)C(=O)N[C@H](C)C(=O)N[C@@H](CC(C)C)C(=O)N[C@@H](Cc1ccccc1)C(=O)N[C@@H](CC(=O)O)C(=O)N[C@@H](CCC(N)=O)C(=O)N[C@@H](CC(C)C)C(=O)N[C@@H](CO)C(=O)N[C@@H](CCCNC(=N)N)C(=O)N[C@@H](CC(C)C)C(N)=O
- Ratio AUC [1]: 0.1
- Ratio AUC [2]: 1
- Ratio AUC [3]: 0.1
- Ratio AUC [4]: 1.1

Structure (SMILES): CC[C@H](C)[C@@H]1NC(=O)[C@H](CCCCN)NC(=O)[C@H]([C@@H](C)CC)NC(=O)[C@@H](N)CSSC[C@@H](C(=O)N[C@@H](CCC(N)=O)C(=O)N[C@@H](CC(C)C)C(=O)N[C@@H](CO)C(=O)N[C@@H](CCCNC(=N)N)C(=O)N[C@@H](CC(C)C)C(N)=O)NC(=O)[C@H](Cc2ccccc2)NC(=O)[C@H](CC(C)C)NC(=O)CNC1=O (H-CIKIGLFCQLSRL-NH2; disulfide 1-8)
- Ratio AUC [1]: 1.1
- Ratio AUC [2]: 1
- Ratio AUC [3]: 1
- Ratio AUC [4]: 1.1

Structure (SMILES): CC[C@H](C)[C@H](NC(=O)[C@H](CCCCN)NC(=O)[C@@H](NC(=O)[C@@H](N)CC(=O)O)[C@@H](C)CC)C(=O)NCC(=O)N[C@@H](CC(C)C)C(=O)N[C@@H](Cc1ccccc1)C(=O)N[C@@H](CCCNC(=N)N)C(=O)N[C@@H](CCC(N)=O)C(=O)N[C@@H](CC(C)C)C(=O)N[C@@H](CO)C(=O)N[C@@H](CCCNC(=N)N)C(=O)N[C@@H](CC(C)C)C(N)=O (H-DIKIGLFRQLSRL-NH2)
- Ratio AUC [1]: 1.1
- Ratio AUC [2]: 1.1
- Ratio AUC [3]: 1
- Ratio AUC [4]: 1.1

Structure (SMILES): CC[C@H](C)[C@@H]1NC(=O)[C@@H](NC(=O)[C@@H](NC(=O)[C@@H](N)CCCNC(=N)N)[C@@H](C)CC)CSSC[C@@H](C(=O)N[C@@H](CCC(N)=O)C(=O)N[C@@H](CC(C)C)C(=O)N[C@@H](CO)C(=O)N[C@@H](CCCNC(=N)N)C(=O)N[C@@H](CC(C)C)C(N)=O)NC(=O)[C@H](Cc2ccccc2)NC(=O)[C@H](CC(C)C)NC(=O)CNC1=O (H-RICIGLFCQLSRL-NH2; disulfide 3-8)
- Ratio AUC [1]: 0.9
- Ratio AUC [2]: 0.9
- Ratio AUC [3]: 1.1
- Ratio AUC [4]: 1

Structure (SMILES): CC[C@H](C)[C@H](NC(=O)[C@H](CC(=O)O)NC(=O)[C@@H](NC(=O)[C@@H](N)CCCNC(=N)N)[C@@H](C)CC)C(=O)NCC(=O)N[C@@H](CC(C)C)C(=O)N[C@@H](Cc1ccccc1)C(=O)N[C@@H](CCCCN)C(=O)N[C@@H](CCC(N)=O)C(=O)N[C@@H](CC(C)C)C(=O)N[C@@H](CO)C(=O)N[C@@H](CCCNC(=N)N)C(=O)N[C@@H](CC(C)C)C(N)=O (H-RIDIGLFKQLSRL-NH2)
- Ratio AUC [1]: 1.1
- Ratio AUC [2]: 1.1
- Ratio AUC [3]: 1.1
- Ratio AUC [4]: 1.1

Structure (SMILES): CC[C@H](C)[C@H](NC(=O)[C@H](CCCCN)NC(=O)[C@@H](NC(=O)[C@@H](N)CCCNC(=N)N)[C@@H](C)CC)C(=O)NCC(=O)N[C@@H](CC(C)C)C(=O)N[C@@H](Cc1c[nH]c2ccccc12)C(=O)N[C@@H](CC(=O)O)C(=O)N[C@@H](CCC(N)=O)C(=O)N[C@@H](CC(C)C)C(=O)N[C@@H](CO)C(=O)N[C@@H](CCCNC(=N)N)C(=O)N[C@@H](CC(C)C)C(N)=O (H-RIKIGLWDQLSRL-NH2)
- Ratio AUC [1]: 0.9
- Ratio AUC [2]: 0.9
- Ratio AUC [3]: 1
- Ratio AUC [4]: 1

Structure (SMILES): CC[C@H](C)[C@H](NC(=O)[C@H](CCCCN)NC(=O)[C@@H](NC(=O)[C@@H](N)CCCNC(=N)N)[C@@H](C)CC)C(=O)NCC(=O)N[C@@H](CC(C)C)C(=O)N[C@@H](Cc1ccc2ccccc2c1)C(=O)N[C@@H](CC(=O)O)C(=O)N[C@@H](CCC(N)=O)C(=O)N[C@@H](CC(C)C)C(=O)N[C@@H](CO)C(=O)N[C@@H](CCCNC(=N)N)C(=O)N[C@@H](CC(C)C)C(N)=O (H-RIKIGL[2Nal]DQLSRL-NH2)
- Ratio AUC [5]: 1.9
- Ratio AUC [1]: 2.1
- Ratio AUC [6]: 1.6
- Ratio AUC [7]: 4
- Ratio AUC [8]: 4
- Ratio AUC [2]: 5
- Ratio AUC [3]: 1.3
- Ratio AUC [9]: 2.4
- Ratio AUC [4]: 10.7
- Ratio AUC [10]: 6.7

Structure (SMILES): CC[C@H](C)[C@H](NC(=O)[C@H](CCCNC(=N)N)NC(=O)[C@@H](NC(=O)[C@@H](N)CCCNC(=N)N)[C@@H](C)CC)C(=O)NCC(=O)N[C@@H](CC(C)C)C(=O)N[C@@H](Cc1ccccc1)C(=O)N[C@@H](CC(=O)O)C(=O)N[C@@H](CCC(N)=O)C(=O)N[C@@H](CC(C)C)C(=O)N[C@@H](Cc1ccccc1)C(=O)N[C@@H](CCCNC(=N)N)C(=O)N[C@@H](CC(C)C)C(N)=O (H-RIRIGLFDQLFRL-NH2)
- Ratio AUC [1]: 1.1
- Ratio AUC [2]: 1.6
- Ratio AUC [3]: 1
- Ratio AUC [4]: 2.7

Structure (SMILES): CC[C@H](C)[C@H](NC(=O)[C@H](CCCNC(=N)N)NC(=O)[C@@H](NC(=O)[C@@H](N)CCCNC(=N)N)[C@@H](C)CC)C(=O)NCC(=O)N[C@@H](CC(C)C)C(=O)N[C@@H](Cc1ccccc1)C(=O)N[C@@H](CC(=O)O)C(=O)N[C@@H](CCC(N)=O)C(=O)N[C@@H](CC(C)C)C(=O)N[C@@H](CC(C)C)C(=O)N[C@@H](CCCNC(=N)N)C(=O)N[C@@H](CC(C)C)C(N)=O (H-RIRIGLFDQLLRL-NH2)
- Ratio AUC [1]: 1.6
- Ratio AUC [2]: 2.9
- Ratio AUC [3]: 1.1
- Ratio AUC [4]: 5.8

Structure (SMILES): CC[C@H](C)[C@H](NC(=O)[C@H](CCCNC(=N)N)NC(=O)[C@@H](NC(=O)[C@@H](N)CCCNC(=N)N)[C@@H](C)CC)C(=O)NCC(=O)N[C@@H](CC(C)C)C(=O)N[C@@H](Cc1ccccc1)C(=O)N[C@@H](CC(=O)O)C(=O)N[C@@H](CCC(N)=O)C(=O)N[C@@H](CC(C)C)C(=O)N[C@@H](CO)C(=O)N[C@@H](CCCNC(=N)N)C(=O)N[C@@H](CC(C)C)C(N)=O (H-RIRIGLFDQLSRL-NH2)
- Ratio AUC [1]: 1.1
- Ratio AUC [2]: 1.3
- Ratio AUC [3]: 1
- Ratio AUC [4]: 2

Structure (SMILES): CC[C@H](C)[C@H](NC(=O)[C@H](CCCNC(=N)N)NC(=O)[C@@H](NC(=O)[C@@H](N)CCCNC(=N)N)[C@@H](C)CC)C(=O)NCC(=O)N[C@@H](CC(C)C)C(=O)N[C@@H](Cc1ccccc1)C(=O)N[C@@H](CC(=O)O)C(=O)N[C@@H](CCC(N)=O)C(=O)N[C@@H](CC(C)C)C(=O)N[C@@H](Cc1c[nH]c2ccccc12)C(=O)N[C@@H](CCCNC(=N)N)C(=O)N[C@@H](CC(C)C)C(N)=O (H-RIRIGLFDQLWRL-NH2)
- Ratio AUC [1]: 1.6
- Ratio AUC [2]: 2.8
- Ratio AUC [3]: 1.2
- Ratio AUC [4]: 4.3

Structure (SMILES): CC[C@H](C)[C@H](NC(=O)[C@H](CCCNC(=N)N)NC(=O)[C@@H](NC(=O)[C@@H](N)CCCNC(=N)N)[C@@H](C)CC)C(=O)NCC(=O)N[C@@H](CC(C)C)C(=O)N[C@@H](Cc1ccccc1)C(=O)N[C@@H](CC(=O)O)C(=O)N[C@@H](CCC(N)=O)C(=O)N[C@@H](CC(C)C)C(=O)N[C@@H](Cc1ccc(O)cc1)C(=O)N[C@@H](CCCNC(=N)N)C(=O)N[C@@H](CC(C)C)C(N)=O (H-RIRIGLFDQLYRL-NH2)
- Ratio AUC [1]: 1.1
- Ratio AUC [2]: 1.5
- Ratio AUC [3]: 1
- Ratio AUC [4]: 2

Structure (SMILES): CC[C@H](C)[C@H](NC(=O)[C@H](CCCNC(=N)N)NC(=O)[C@@H](NC(=O)[C@@H](N)CCCNC(=N)N)[C@@H](C)CC)C(=O)NCC(=O)N[C@@H](CC(C)C)C(=O)N[C@@H](Cc1ccccc1)C(=O)N[C@@H](CC(=O)O)C(=O)N[C@@H](CCC(N)=O)C(=O)N[C@@H](CC(C)C)C(=O)N[C@@H](Cc1ccc(Cl)cc1)C(=O)N[C@@H](CCCNC(=N)N)C(=O)N[C@@H](CC(C)C)C(N)=O (H-RIRIGLFDQL[Phe(4-Cl)]RL-NH2)
- Ratio AUC [1]: 1.2
- Ratio AUC [2]: 1.8
- Ratio AUC [3]: 1.1
- Ratio AUC [4]: 3.5

Structure (SMILES): CC[C@H](C)[C@H](NC(=O)[C@H](CCCCN)NC(=O)[C@H](CC(C)C)NC(=O)[C@@H](N)CCCNC(=N)N)C(=O)NCC(=O)N[C@@H](CC(C)C)C(=O)N[C@@H](Cc1ccccc1)C(=O)N[C@@H](CC(=O)O)C(=O)N[C@@H](CCC(N)=O)C(=O)N[C@@H](CC(C)C)C(=O)N[C@@H](CO)C(=O)N[C@@H](CCCNC(=N)N)C(=O)N[C@@H](CC(C)C)C(N)=O (H-RLKIGLFDQLSRL-NH2)
- Ratio AUC [1]: 1
- Ratio AUC [2]: 1
- Ratio AUC [3]: 1
- Ratio AUC [4]: 1

— ChEMBL document CHEMBL4342489, “Structure-Activity Relationship Evaluation of Wasp Toxin β-PMTX Leads to Analogs with Superior Activity for Human Neuronal Sodium Channels” (ACS Med Chem Lett, 2020)
